Data: patent publication US20120323022A1, “(2'S)-COLUMBIANETIN ISOLATED FROM CORYDALIS HETEROCARPA AND COMPOSITION CONTAINING THE SAME” (priority 2011, published 2012)

Tests used:
Type in all cases: cell-based, Human
[1] = test system: p53; test: Western blot, phosphorylated p53 in UVB-exposed cells; details: UVB-exposed HaCaT cells, FIG. 7B
Method: (§1) Human keratinocyte (HaCaT, Korean Cell Line Bank, Seoul, Korea) cells were grown in Dulbecco's modified Eagle medium (DMEM, Gibco-BRL, Gaithersbrug, Md., USA) containing 10% fetal bovine serum (FBS), 2 mM glutamine and 100 μg/mL penicillin-streptomycin (Gibco-BRL, Gaithersbrug, Md., USA) at 37° C. humidified atmosphere of 5% CO2. Cells were sub-cultured to about 90-95% confluence by detaching with trypsin-EDTA solution.
(§2) Whole cells were lysed in RIPA buffer (Sigma-Aldrich Corp., St. Louis, USA) at 4° C. for 30 min. After centrifugation, total protein amount of cell lysates were determined using Lowry method (BioRad Laboratories, Hercules, Calif.). […] Bound antibodies were detected by horseradish peroxidase-conjugated secondary antibodies for 1 h at room temperature and the immunoreactive proteins were detected using a chemiluminescent ECL assay kit (Amersham Pharmacia Biosciences, England, UK) according to the manufacturer's instructions. […]

[2] = test system: HaCaT cells; test: LDH release assay, cell injury of UVB-exposed cells; details: UVB 40 mJ/cm^2, incubation 24 h, FIG. 2B
Method: as §1
Cell injury was measured by quantifying the amount of lactate dehydrogenase (LDH)-release using a commercial LDH cytotoxicity detection kit (TaKaRa Biomedicals, Tokyo, Japan). Cells were exposed according to the experiment design. The conditioned medium of the UVB-exposed cells was collected for LDH measurement. The substrate mix solution was added to aliquots of the supernatant medium at 1:1 ratio and incubated at 37° C. for 30 min under light protected conditions. Then, the absorbance was determined at 490 nm immediately after the addition of 1N HCl stop solution (final concentration, 0.2 N) using a microplate reader (Tacan Austria GmbH, Salzburg, Austria). Control was prepared with 0.1% (w/v) Triton X-100, which was defined as 100% LDH release.
(§3) Based on the above results, effects of (2′S)-columbianetin on the viability and injury degree of UVB-exposed keratinocyte cells were examined at incubation for 24 h after UVB exposure of 40 mJ/cm^2.

[3] = test system: HaCaT cells; test: Microscopic image of morphological changes in UVB-exposed cells; details: UVB 40 mJ/cm^2, microscopic image, FIG. 2C
Method: as §1
To determine the appropriate energy level of UVB irradiation, the cytotoxicity of keratinocytes cultured from the above was determined by comparing the data obtained from MTT and LDH leakage for 6, 12, 24 and 48 h after UVB irradiation from 10 to 3000 mJ/cm^2. Exposure of cells to UVB energy induced significant decrease of cell viability (FIG. 1A) and increase of LDH release in a UVB exposure-dependent manner (FIG. 1B). Morphological changes in keratinocyte cells for different incubation periods (6, 12, 24 and 48 h) after UVB exposure of cells in a range of 10-3000 mJ/cm^2 were compared (FIG. 1C). A larger proportion of cells were swelling and dying in a dose- and time-dependent manner.
as §3

[4] = test system: TIMP-2; test: RT-PCR and Western blot, TIMP-2 expression in UVB-exposed cells; details: HaCaT, UVB 40 mJ/cm^2, FIG. 5
Method: as §1
(§4) Total cellular RNA was isolated using Trizol reagent (Invitrogen Co., CA, USA). The 2 μg of isolated RNA was reverse transcribed into cDNA using oligo-(dT) primer (Promega, Madison, Wis., USA). […] Finally, the relative band densities were determined using a LAS3000® Luminescent image analyzer (Fujifilm Life Science, Tokyo, Japan).
as §2

[5] = test system: Bax; test: Western blot, Bax in UVB-exposed cells; details: UVB-exposed HaCaT cells, FIG. 7B
Method: as §1, §2

[6] = test system: genomic DNA of keratinocyte cells; test: Genomic DNA extraction and DNA oxidation, agarose gel; details: UVB-stimulated cells, FIG. 4
Method: as §1
Genomic DNA was isolated from keratinocyte cells using standard phenol/proteinase K procedure with slight modifications (J. Sambrook, D. W. Russell, Molecular Cloning: A Laboratory Manual; 3rd ed. Cold Spring Harbor Laboratory Press: Cold Spring Harbor. 2001). In brief, UVB-stimulated cells in the presence and absence of sample were washed twice with PBS and collected using 1 mL of PBS containing 10 mM EDTA. After centrifugation at 13,400×g for 5 min at 4° C., the deposited cells were resuspended in 410 μL of solution including RNase A (0.5 mg/mL), proteinase K (10 mg/mL), SDS (10%) and NaOAC (0.2 M). After that, this mixture was incubated at 37° C. for 30 min and 55° C. for 1 h. Following incubation, phenol:chloroform:iso-amylalcohol (25:24:1) was added at 1:1 ratio, after which the mixture was centrifuged at 13,400×g for 5 min at 4° C. […] Purity of DNA was determined by ratio of absorbance at 260 and 280 nm using spectrophotometric assay. […]

[7] = test system: intracellular ROS; test: Intracellular ROS generation (DCFH-DA) in UVB-exposed cells; details: UVB 40 mJ/cm^2, treated 24 h, FIG. 3
Method: as §1
The levels of intracellular ROS generation were detected using the oxidation sensitive dye 2′,7′-dichlorofluorescin diacetate (DCFH-DA). The cells were grown in a 96-well microplate with fluorescence for 24 h and followed by exposure to UVB (40 mJ/cm^2). The exposed cells were treated with (2′S)-columbianetin for 24 h and then they were loaded with 20 μM of DCFH-DA in PBS and incubated for 30 min in the dark at 37° C. under a humidified atmosphere with 5% CO2. Finally, cells were washed twice with PBS and the fluorescence of DCF in PBS was detected at an excitation wavelength of 485 nm and an emission wavelength of 535 nm using a fluorescence microplate reader (Tacan Austria GmbH, Salzburg, Austria) and the result is shown in FIG. 3.

[8] = test system: c-fos; test: Western blot, AP-1 activation (c-fos) in UVB-exposed cells; details: UVB-exposed HaCaT cells, FIG. 7A
Method: as §1, §2

[9] = test system: MMP-2 (gelatinase A); test: RT-PCR and Western blot, MMP-2 expression in UVB-exposed cells; details: HaCaT, UVB 40 mJ/cm^2, RT-PCR and Western blot, FIG. 5
Method: as §1, §4, §2

[10] = test system: HaCaT cells; test: MTT assay, viability of UVB-exposed keratinocyte cells; details: UVB 40 mJ/cm^2, incubation 24 h, compared with only UVB-exposed cells, FIG. 2A
Method: as §1
The viability levels of keratinocyte cells were determined by the ability of mitochondria to convert 3-(4,5-dimethylthiazol-2-yl)-2,5-diphenyl tetrazolium bromide (MTT) to insoluble formazan product. Briefly, cells were grown in 96-well plates at a density of 1×10^4 cells/well. After incubation for 24 h, the cells were stimulated by UVB irradiation (40 mJ/cm^2) and incubated for 24 h in the absence or presence of (2′S)-columbianetin at 37° C. under a humidified atmosphere of 5% CO2. The supernatant medium was removed and 100 μL of 1 mg/mL MTT reagent was added to each well, followed by incubation for 4 h. After removal of unconverted MTT, the amount of formazan in the cells was determined by adding DMSO (dimethyl sulfoxide) to wells and measuring optical density (OD) at 540 nm using a microplate reader (Tacan Austria GmbH, Salzburg, Austria). Relative cell viability was calculated as the percentage of viability of untreated cells that were considered the control. […]

[11] = test system: MMP-9 (gelatinase B); test: RT-PCR and Western blot, MMP-9 expression in UVB-exposed cells; details: HaCaT, UVB 40 mJ/cm^2, RT-PCR and Western blot, FIG. 5
Method: as §1, §4, §2

[12] = test system: c-Jun N-terminal kinase (JNK); test: Western blot, phosphorylated JNK in UVB-exposed cells; details: UVB-exposed HaCaT cells, FIG. 6
Method: as §1, §2

[13] = test system: TIMP-1; test: RT-PCR and Western blot, TIMP-1 expression in UVB-exposed cells; details: HaCaT, UVB 40 mJ/cm^2, FIG. 5
Method: as §1, §4, §2

[14] = test system: extracellular signal-related kinase (ERK1/2); test: Western blot, phosphorylated ERK1/2 in UVB-exposed cells; details: UVB-exposed HaCaT cells, FIG. 6
Method: as §1, §2

[15] = test system: p38 MAPK; test: Western blot, phosphorylated p38 MAPK in UVB-exposed cells; details: UVB-exposed HaCaT cells, FIG. 6
Method: as §1, §2

CC(C)(O)C1Cc2c(ccc3ccc(=O)oc23)O1 (stereo not drawn) [(2′S)-columbianetin]
expression level of phosphorylated p53 [1]: the increments were suppressed
degree of cell injury (LDH release) [2]: substantially decreased the degree of cell injury by UVB exposure in a dose-dependent manner
morphological changes in cells due to UV [3]: effectively suppressed the morphological changes in cells
TIMP-2 expression [4]: dose-dependently enhanced
expression level of Bax protein [5]: the increments were suppressed
protective effect on DNA damage due to UVB exposure [6]: adequate protective effect on DNA damage
DCF fluorescence intensity (intracellular ROS) [7]: significantly reduced DCF fluorescence intensity in a dose-dependent manner
activated nuclear transcription factor c-fos [8]: significantly down-regulated
expression level of UVB-mediated gelatinase A (MMP-2) gene and protein [9]: reduced by (2′S)-columbianetin in a dose-dependent manner
cell viability (MTT) [10]: substantially increased cell viability in a dose-dependent manner
expression level of UVB-mediated gelatinase B (MMP-9) gene and protein [11]: reduced by (2′S)-columbianetin in a dose-dependent manner
expression of phosphorylated JNK protein [12]: effectively decreased the regulations
TIMP-1 expression [13]: dose-dependently enhanced
expression of phosphorylated ERK1/2 protein [14]: effectively decreased the regulations
expression of phosphorylated p38 MAPK protein [15]: effectively decreased the regulations
